The values below come from BindingDB's records for patent US11903936 (University of Texas, 2024).

This experiment has as its target T1, Dihydroorotate dehydrogenase (quinone), mitochondrial (Plasmodium falciparum (isolate 3D7), UniProt Q08210).
T1 sequence (Q08210 whole entry): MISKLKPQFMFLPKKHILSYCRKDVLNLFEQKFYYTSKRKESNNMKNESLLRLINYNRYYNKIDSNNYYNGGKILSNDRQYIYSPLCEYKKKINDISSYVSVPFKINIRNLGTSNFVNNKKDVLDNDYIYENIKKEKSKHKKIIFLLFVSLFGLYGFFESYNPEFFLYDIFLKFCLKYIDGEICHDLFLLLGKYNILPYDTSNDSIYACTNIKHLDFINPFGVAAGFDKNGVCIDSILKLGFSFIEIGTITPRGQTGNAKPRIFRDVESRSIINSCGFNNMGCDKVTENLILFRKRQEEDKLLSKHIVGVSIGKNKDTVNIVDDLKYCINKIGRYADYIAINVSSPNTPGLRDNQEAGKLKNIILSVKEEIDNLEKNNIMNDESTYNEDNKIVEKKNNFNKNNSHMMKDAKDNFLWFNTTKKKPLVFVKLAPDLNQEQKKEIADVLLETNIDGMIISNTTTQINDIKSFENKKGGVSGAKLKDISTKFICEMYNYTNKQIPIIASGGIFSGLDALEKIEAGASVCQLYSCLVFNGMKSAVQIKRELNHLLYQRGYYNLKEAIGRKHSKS
The experiment in a line: P. falciparum growth and inhibition assays.

Protocol: DSMO inhibitor stocks (as above) were diluted in DMSO using a 2 or 3-fold dilution series and then dispensed into media at 10× the final concentrations. A second step into media led to final inhibitor concentrations ranging from 0.001-30 μM and a final DMSO concentration of 0.2%. […] Data were collected using triplicate technical replicates and where indicated additional biological replicates were collected (the number of biological replicates is provided in parenthesis).

As a reminder, the EC50 is the midpoint of the concentration-response curve. `Cc1c(Cc2ccc(C(F)(F)F)c(F)c2)c[nH]c1C(=O)NC(C)c1nc[nH]n1` (stereo unspecified) [US11903936, Compound 5] showed an EC50 of 39 nM.
